# Source: ChEMBL document CHEMBL1133262, “Studies on the novel anti-staphyloccal compound nematophin” (2000)
# Activity calls are given as the source filed them. The calls are words filed in the database; no cut-off is given here.
# How the values were obtained:
# Staphylococcus aureus [1] = assay: Activity against methicillin sensitive organism Staphylococcus aureus 853 in presence of serum.; format: functional, organism-based
# Staphylococcus aureus [2] = assay: Minimum inhibitory concentration against methicillin sensitive organism Staphylococcus aureus 853; format: functional
# Bacillus subtilis = assay: Minimum inhibitory concentration against Bacillus subtilis; format: functional
# Staphylococcus aureus [3] = assay: Minimum inhibitory concentration against methicillin resistant organism Staphylococcus aureus COL; format: functional
Structure (SMILES),MIC (Staphylococcus aureus [1]),MIC (Staphylococcus aureus [2]) [µg/mL],MIC (Bacillus subtilis) [µg/mL],MIC (Staphylococcus aureus [3]) [µg/mL]
CCC(C)C(=O)C(=O)NCCn1cnc2ccccc21 (stereo unspecified),inactive,> 32,> 32,–
CCC(C)C(=O)C(=O)NCCc1cn(Cc2ccccc2)c2ccccc12 (stereo unspecified),inactive,2,> 32,> 32
CCC(C)C(=O)C(=O)NCCc1c(-c2cccnc2)[nH]c2ccccc12 (stereo unspecified),inactive,0.5,> 32,4
CCC(C)C(=O)C(=O)NCCc1c(-c2ccc[n+](C)c2)[nH]c2ccccc12.[I-] (stereo unspecified),inactive,> 32,> 32,–
CCC(C)C(=O)C(=O)NCCc1c(-c2ccccc2)[nH]c2ccccc12 (stereo unspecified),inactive,< 0.03,8,0.06
CCC(C)C(=O)C(=O)NCCn1c(-c2ccccc2)[n+](C)c2ccccc21.[I-] (stereo unspecified),inactive,> 32,> 32,–
O=C1c2ccccc2C(=O)N1CCc1c(-c2ccccc2)[nH]c2ccccc12,inactive,–,–,–
CCC(C)C(=O)C(=O)NCCc1c[nH]c2ccccc12 (stereo unspecified),inactive,2,> 32,16
O=C1c2ccccc2C(=O)N1CCn1c(-c2ccccc2)nc2ccccc21,inactive,–,–,–
CCC(C)C(=O)C(=O)NCCn1c[n+](C)c2ccccc21.[I-] (stereo unspecified),inactive,> 32,> 32,–
O=[N+]([O-])c1ccccc1F,inactive,–,–,–
CCC(C)C(=O)C(=O)NCCc1c(-c2ccc[n+](CC(N)=O)c2)[nH]c2ccccc12.[I-] (stereo unspecified),inactive,> 32,> 32,–
O=C1c2ccccc2C(=O)N1CCc1c(-c2cccnc2)[nH]c2ccccc12,inactive,–,–,–
O=C1c2ccccc2C(=O)N1CCc1c[nH]c2ccccc12,inactive,–,–,–
CCC(C)C(=O)C(=O)NCCn1c(-c2ccccc2)nc2ccccc21 (stereo unspecified),inactive,8,> 32,16
O=C1c2ccccc2C(=O)N1CCn1cnc2ccccc21,inactive,–,–,–
